Measured values from patent US10385057B2, “Pyrazole compounds and methods of making and using same” (Lundbeck La Jolla Research Center, Inc., priority 2015, dated 2019).

Legend:
[1] = biological target: T1, MAGL (Mus musculus, UniProt O35678); assay: In vitro competitive activity-based protein profiling, mouse MAGL; type: biochemical; settings: for inhibition at 1 µM: read-out: MAGL % inh. 1 μM (mouse)
T1 construct: mouse brain membrane fraction or cell lysates for mouse assays; from tissue
T1 sequence (O35678 1-303): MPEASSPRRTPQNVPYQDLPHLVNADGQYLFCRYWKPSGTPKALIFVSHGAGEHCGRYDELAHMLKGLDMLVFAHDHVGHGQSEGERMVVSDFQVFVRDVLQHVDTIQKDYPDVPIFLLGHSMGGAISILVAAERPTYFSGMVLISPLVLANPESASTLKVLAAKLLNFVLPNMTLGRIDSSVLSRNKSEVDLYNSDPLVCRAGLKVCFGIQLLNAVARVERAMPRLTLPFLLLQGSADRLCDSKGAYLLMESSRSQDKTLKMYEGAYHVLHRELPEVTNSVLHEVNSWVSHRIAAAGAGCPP
How it was run: (§1)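 Activity measured as fluorescent gel-band intensity of MAGL and FAAH after SDS-PAGE. Before labelling with FP-Rh or HT-01 (30 min, 37 °C), proteomes at 1.0 mg/mL (mouse brain membrane or lysates; human prefrontal cortex or cell membranes) were exposed to varying inhibitor concentrations for 30 min at 37 °C.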

[2] = biological target: T2, FAAH (Mus musculus, UniProt O08914); assay: In vitro competitive activity-based protein profiling, mouse FAAH; type: biochemical; settings: for inhibition at 1 µM: read-out: FAAH % inh. 1 μM (mouse)
T2 construct: mouse brain membrane fraction or cell lysates for mouse assays; from tissue
T2 sequence (O08914 1-579): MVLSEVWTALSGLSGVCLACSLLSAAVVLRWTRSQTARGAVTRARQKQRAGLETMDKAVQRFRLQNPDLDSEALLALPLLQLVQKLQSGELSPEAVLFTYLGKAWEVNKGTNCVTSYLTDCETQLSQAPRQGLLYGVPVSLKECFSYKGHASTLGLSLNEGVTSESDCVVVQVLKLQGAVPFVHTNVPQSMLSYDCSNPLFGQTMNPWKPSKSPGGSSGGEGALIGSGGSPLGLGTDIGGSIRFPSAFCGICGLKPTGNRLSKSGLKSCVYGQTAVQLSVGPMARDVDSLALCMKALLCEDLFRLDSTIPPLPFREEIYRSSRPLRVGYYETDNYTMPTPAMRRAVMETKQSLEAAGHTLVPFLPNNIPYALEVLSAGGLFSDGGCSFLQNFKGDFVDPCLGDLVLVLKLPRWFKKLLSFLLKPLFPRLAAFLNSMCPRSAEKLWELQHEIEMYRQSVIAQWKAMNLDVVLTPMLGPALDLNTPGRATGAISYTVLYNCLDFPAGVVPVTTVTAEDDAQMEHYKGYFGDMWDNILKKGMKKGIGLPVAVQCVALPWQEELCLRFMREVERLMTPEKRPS
How it was run: as §1

| IC50 [1] [nM] | inhibition at 1 µM [1] [%] | IC50 [2] [nM] | inhibition at 1 µM [2] [%] | Structure (SMILES) |
| --- | --- | --- | --- | --- |
| 100 to 1000 | ≥ 75 | 100 to 1000 | ≥ 75 | O=C(N1CCC2(CCN(Cc3ccc(F)cc3)C2)C1)n1cc(C(F)(F)F)cn1 (centres unmarked) [Example 166, (7-(4-fluorobenzyl)-2,7-diazaspiro[4.4]nonan-2-yl)(4-(trifluoromethyl)-1H-pyrazol-1-yl)methanone] |
| 100 to 1000 | ≥ 75 | ≤ 100 | ≥ 75 | O=C(N1CCC2(CCN(Cc3cccc(F)c3)C2)C1)n1cc(C(F)(F)F)cn1 (centres unmarked) [Example 169, (7-(3-fluorobenzyl)-2,7-diazaspiro[4.4]nonan-2-yl)(4-(trifluoromethyl)-1H-pyrazol-1-yl)methanone] |
| ≤ 100 | ≥ 75 | ≤ 100 | ≥ 75 | O=C(N1CCC2(CCN(Cc3ccccc3Cl)C2)C1)n1cc(C(F)(F)F)cn1 (centres unmarked) [Example 176, (7-(2-chlorobenzyl)-2,7-diazaspiro[4.4]nonan-2-yl)(4-(trifluoromethyl)-1H-pyrazol-1-yl)methanone] |
|  | ≥ 75 |  | ≥ 75 | O=C(N1CCC2(CCN(Cc3ccccc3F)C2)C1)n1cc(C(F)(F)F)cn1 (centres unmarked) [Example 177, (7-(2-fluorobenzyl)-2,7-diazaspiro[4.4]nonan-2-yl)(4-(trifluoromethyl)-1H-pyrazol-1-yl)methanone] |
| 100 to 1000 | ≥ 75 | 100 to 1000 | ≥ 75 | Cc1ccccc1CN1CCC2(CCN(C(=O)n3cc(C(F)(F)F)cn3)C2)C1 (centres unmarked) [Example 178, (7-(2-methylbenzyl)-2,7-diazaspiro[4.4]nonan-2-yl)(4-(trifluoromethyl)-1H-pyrazol-1-yl)methanone] |
|  | ≥ 75 |  | 50 to 75 | COc1ccccc1CN1CCC2(CCN(C(=O)n3cc(C(F)(F)F)cn3)C2)C1 (centres unmarked) [Example 179, (7-(2-methoxybenzyl)-2,7-diazaspiro[4.4]nonan-2-yl)(4-(trifluoromethyl)-1H-pyrazol-1-yl)methanone] |
|  | ≥ 75 |  | ≥ 75 | O=C(N1CCC2(CCN(Cc3ccccc3C(F)(F)F)C2)C1)n1cc(C(F)(F)F)cn1 (centres unmarked) [Example 180, (4-(trifluoromethyl)-1H-pyrazol-1-yl)(7-(2-(trifluoromethyl)benzyl)-2,7-diazaspiro[4.4]nonan-2-yl)methanone] |

Continued, compound first:

| Structure (SMILES) | IC50 [1] [nM] | inhibition at 1 µM [1] [%] | IC50 [2] [nM] | inhibition at 1 µM [2] [%] |
| --- | --- | --- | --- | --- |
| CN(Cc1cccc(Oc2ccccc2)c1)[C@H]1C[C@@H]2CN(C(=O)n3cc(Cl)cn3)C[C@@H]2C1 [Example 162, (4-chloro-1H-pyrazol-1-yl)(trans-5-(methyl(3-phenoxybenzyl)amino)hexahydrocyclopenta[c]pyrrol-2(1H)-yl)methanone] | ≤ 100 | ≥ 75 | ≤ 100 | ≥ 75 |
| CN(Cc1cccc(Oc2cccnc2)c1)[C@H]1C[C@@H]2CN(C(=O)n3cc(Cl)cn3)C[C@@H]2C1 [Example 163, (4-chloro-1H-pyrazol-1-yl)(trans-5-(methyl(3-(pyridin-3-yloxy)benzyl)amino)hexahydrocyclopenta[c]pyrrol-2(1H)-yl)methanone] | ≤ 100 | ≥ 75 | ≤ 100 | ≥ 75 |
| CN(Cc1cccc(Oc2ccccc2)c1)[C@@H]1C[C@@H]2CN(C(=O)n3cc(Cl)cn3)C[C@@H]2C1 [Example 164, (4-chloro-1H-pyrazol-1-yl)(cis-5-(methyl(3-phenoxybenzyl)amino)hexahydrocyclopenta[c]pyrrol-2(1H)-yl)methanone] | ≤ 100 | ≥ 75 | ≤ 100 | ≥ 75 |
| CN(Cc1cccc(Oc2cccnc2)c1)[C@@H]1C[C@@H]2CN(C(=O)n3cc(Cl)cn3)C[C@@H]2C1 [Example 165, (4-chloro-1H-pyrazol-1-yl)(cis-5-(methyl(3-(pyridin-3-yloxy)benzyl)amino)hexahydrocyclopenta[c]pyrrol-2(1H)-yl)methanone] | 100 to 1000 | ≥ 75 | ≤ 100 | ≥ 75 |
| COc1ccc(CN2CCC3(CCN(C(=O)n4cc(C(F)(F)F)cn4)C3)C2)cc1 (centres unmarked) [Example 167, (7-(4-methoxybenzyl)-2,7-diazaspiro[4.4]nonan-2-yl)(4-(trifluoromethyl)-1H-pyrazol-1-yl)methanone] | 100 to 1000 | ≥ 75 | 100 to 1000 | ≥ 75 |
| O=C(N1CCC2(CCN(Cc3cccc(Cl)c3)C2)C1)n1cc(C(F)(F)F)cn1 (centres unmarked) [Example 168, (7-(3-chlorobenzyl)-2,7-diazaspiro[4.4]nonan-2-yl)(4-(trifluoromethyl)-1H-pyrazol-1-yl)methanone] | ≤ 100 | ≥ 75 | ≤ 100 | ≥ 75 |
| Cc1cccc(CN2CCC3(CCN(C(=O)n4cc(C(F)(F)F)cn4)C3)C2)c1 (centres unmarked) [Example 170, (7-(3-methylbenzyl)-2,7-diazaspiro[4.4]nonan-2-yl)(4-(trifluoromethyl)-1H-pyrazol-1-yl)methanone] | 100 to 1000 | ≥ 75 | ≤ 100 | ≥ 75 |
| COc1cccc(CN2CCC3(CCN(C(=O)n4cc(C(F)(F)F)cn4)C3)C2)c1 (centres unmarked) [Example 171] | 100 to 1000 | ≥ 75 | ≤ 100 | ≥ 75 |
| O=C(N1CCC2(CCN(Cc3cccc(C(F)(F)F)c3)C2)C1)n1cc(C(F)(F)F)cn1 (centres unmarked) [Example 172, (4-(trifluoromethyl)-1H-pyrazol-1-yl)(7-(3-(trifluoromethyl)benzyl)-2,7-diazaspiro[4.4]nonan-2-yl)methanone] | ≤ 100 | ≥ 75 | ≤ 100 | ≥ 75 |
| Cc1ccc(CN2CCC3(CCN(C(=O)n4cc(C(F)(F)F)cn4)C3)C2)cc1 (centres unmarked) [Example 173, (7-(4-methylbenzyl)-2,7-diazaspiro[4.4]nonan-2-yl)(4-(trifluoromethyl)-1H-pyrazol-1-yl)methanone] |  | ≥ 75 |  | ≥ 75 |
| O=C(N1CCC2(CCN(Cc3cccc(N4CCCC4)c3)C2)C1)n1cc(C(F)(F)F)cn1 (centres unmarked) [Example 174, (7-(3-(pyrrolidin-1-yl)benzyl)-2,7-diazaspiro[4.4]nonan-2-yl)(4-(trifluoromethyl)-1H-pyrazol-1-yl)methanone] |  | ≥ 75 |  | ≥ 75 |
| O=C(N1CCC2(CCN(Cc3cccc(N4CCOCC4)c3)C2)C1)n1cc(C(F)(F)F)cn1 (centres unmarked) [Example 175, (7-(3-morpholinobenzyl)-2,7-diazaspiro[4.4]nonan-2-yl)(4-(trifluoromethyl)-1H-pyrazol-1-yl)methanone] |  | ≥ 75 |  | ≥ 75 |
| O=C(N1CCC2(CCN(Cc3ccccc3N3CCCC3)C2)C1)n1cc(C(F)(F)F)cn1 (centres unmarked) [Example 181, (7-(2-(pyrrolidin-1-yl)benzyl)-2,7-diazaspiro[4.4]nonan-2-yl)(4-(trifluoromethyl)-1H-pyrazol-1-yl)methanone] |  | ≥ 75 |  | 25 to 50 |
| O=C(N1CCC2(CCN(Cc3ccccc3N3CCOCC3)C2)C1)n1cc(C(F)(F)F)cn1 (centres unmarked) [Example 182, 2-{[2-(morpholin-4-yl)phenyl]methyl}-7-{[4-(trifluoromethyl)-1H-pyrazol-1-yl]carbonyl}-2,7-diazaspiro[4.4]nonane] |  | ≥ 75 |  | 25 to 50 |
